From the CheMixHub viscosity set
± gives the uncertainty stated by the source.

Experiment: xn = mol fraction of the nth substance listed

Cc1ccccc1C + CCCCO
308.15 K, 101 kPa
Settings	viscosity [mPa·s]
x2 = 0.0515	0.62 ± 0.013
x2 = 0.1019	0.659 ± 0.014
x2 = 0.1872	0.672 ± 0.014
x2 = 0.3031	0.687 ± 0.014
x2 = 0.4127	0.752 ± 0.016
x2 = 0.5164	0.808 ± 0.017
x2 = 0.6146	0.912 ± 0.019
x2 = 0.7079	1.021 ± 0.021
x2 = 0.7965	1.135 ± 0.024
x2 = 0.8809	1.326 ± 0.028
x2 = 0.9612	1.564 ± 0.032

c1ccc(Oc2ccccc2)cc1 + CC(C)=O
298.15 K, 101 kPa
Settings	viscosity [mPa·s]
x2 = 0.4843	1.339 ± 0.035
x2 = 0.7306	0.714 ± 0.019
x2 = 0.894	0.439 ± 0.012

CCOC(=O)OCC + CCCCCCCO
101 kPa
Settings	viscosity [mPa·s]
293.15 K, x1 = 0.0488	5.846
293.15 K, x1 = 0.1045	4.795
293.15 K, x1 = 0.1829	3.725
293.15 K, x1 = 0.3015	2.669
293.15 K, x1 = 0.4047	2.08
293.15 K, x1 = 0.4807	1.748
293.15 K, x1 = 0.5714	1.453
293.15 K, x1 = 0.7024	1.153
293.15 K, x1 = 0.7985	0.995
293.15 K, x1 = 0.9023	0.873
293.15 K, x1 = 0.9522	0.831
303.15 K, x1 = 0.06097	4.061
303.15 K, x1 = 0.1159	3.411
303.15 K, x1 = 0.1861	2.773
303.15 K, x1 = 0.296	2.086
303.15 K, x1 = 0.4	1.655
303.15 K, x1 = 0.4747	1.417
303.15 K, x1 = 0.5946	1.149
303.15 K, x1 = 0.7056	0.955
303.15 K, x1 = 0.7928	0.851
303.15 K, x1 = 0.9047	0.755
303.15 K, x1 = 0.9521	0.727
313.15 K, x1 = 0.05658	3.024
313.15 K, x1 = 0.1024	2.586
313.15 K, x1 = 0.1931	2.03
313.15 K, x1 = 0.3063	1.576
313.15 K, x1 = 0.3932	1.348
313.15 K, x1 = 0.4994	1.121
313.15 K, x1 = 0.5837	0.974
313.15 K, x1 = 0.7095	0.811
313.15 K, x1 = 0.7894	0.736
313.15 K, x1 = 0.8956	0.661
313.15 K, x1 = 0.9569	0.634

COCCOCCO + COC(=O)OC
298.15 K, 101.33 kPa
Settings	viscosity [mPa·s]
x1 = 0.0093	0.598 ± 0.008
x1 = 0.0245	0.612 ± 0.008
x1 = 0.037	0.623 ± 0.008
x1 = 0.0694	0.655 ± 0.008
x1 = 0.0966	0.685 ± 0.008
x1 = 0.1283	0.723 ± 0.008
x1 = 0.1675	0.774 ± 0.009
x1 = 0.1922	0.806 ± 0.009
x1 = 0.2198	0.848 ± 0.009
x1 = 0.3005	0.984 ± 0.01
x1 = 0.3454	1.069 ± 0.011
x1 = 0.3786	1.142 ± 0.012
x1 = 0.3835	1.154 ± 0.012
x1 = 0.4083	1.214 ± 0.012
x1 = 0.4365	1.284 ± 0.013
x1 = 0.4695	1.364 ± 0.014
x1 = 0.5345	1.538 ± 0.016
x1 = 0.584	1.681 ± 0.017
x1 = 0.623	1.803 ± 0.018
x1 = 0.6563	1.916 ± 0.02
x1 = 0.7394	2.226 ± 0.023
x1 = 0.7818	2.402 ± 0.025
x1 = 0.8262	2.598 ± 0.028
x1 = 0.8705	2.802 ± 0.031
x1 = 0.8876	2.889 ± 0.032
x1 = 0.9134	3.004 ± 0.033
x1 = 0.9327	3.098 ± 0.035
x1 = 0.9669	3.272 ± 0.037

NC(N)=O + c1ccncc1
Settings	viscosity [mPa·s]
298.15 K, 101 kPa, x1 = 0.012	0.939 ± 0.19

Cc1ccc(N)cc1 + Oc1ccccc1
101 kPa
Settings	viscosity [mPa·s]
303.1 K, x2 = 0.43	7.57 ± 0.16
303.1 K, x2 = 0.507	8.64 ± 0.18
303.1 K, x2 = 0.619	9.42 ± 0.19
303.1 K, x2 = 0.652	9.62 ± 0.19
303.1 K, x2 = 0.741	8.94 ± 0.18
313.05 K, x2 = 0.111	2.632 ± 0.025
313.05 K, x2 = 0.2288	3.352 ± 0.033
313.05 K, x2 = 0.3265	4.09 ± 0.04
313.05 K, x2 = 0.4169	4.82 ± 0.05
313.05 K, x2 = 0.4949	5.43 ± 0.05
313.05 K, x2 = 0.5828	6.015 ± 0.058
313.05 K, x2 = 0.6568	6.29 ± 0.06
313.05 K, x2 = 0.737	6.27 ± 0.06
313.05 K, x2 = 0.8217	5.915 ± 0.057
313.05 K, x2 = 0.9089	5.38 ± 0.05

CCCCCCCCCCCC[P+](CC)(CC)CC.N#Cc1ccc[n-]1 + OCC(O)CO
100 kPa
Settings	viscosity [mPa·s]
293.15 K, x1 = 0.542	941 ± 140
293.15 K, x1 = 0.677	861 ± 130
298.15 K, x1 = 0.003	864 ± 130
298.15 K, x1 = 0.01	905 ± 140
298.15 K, x1 = 0.343	974 ± 150
298.15 K, x1 = 0.426	715 ± 110
303.15 K, x1 = 0.041	788 ± 120
303.15 K, x1 = 0.056	912 ± 140
303.15 K, x1 = 0.196	957 ± 140
303.15 K, x1 = 0.292	734 ± 110

CCCCCC(=O)[O-].[NH3+]CCO + CCO
viscosity [mPa·s], 101 kPa
Settings	x1 = 0.0135	x2 = 0.794	x2 = 0.8544	x2 = 0.9	x2 = 0.9391	x2 = 0.9563	x2 = 0.9719
293.15 K	1.548 ± 0.071	13.46 ± 0.7	7.158 ± 0.45	4.35 ± 0.24	2.76 ± 0.14	2.28 ± 0.11	1.86 ± 0.084
298.15 K	1.428 ± 0.067	11.38 ± 0.6	6.24 ± 0.32	3.87 ± 0.19	2.472 ± 0.12	2.046 ± 0.096	1.74 ± 0.081
303.15 K	1.29 ± 0.061	9.792 ± 0.52	5.43 ± 0.24	3.39 ± 0.15	2.22 ± 0.1	1.848 ± 0.087	1.512 ± 0.075

Cc1ccccc1C + CCC(C)O
308.15 K, 101 kPa
Settings	viscosity [mPa·s]
x2 = 0.0648	0.655 ± 0.014
x2 = 0.1275	0.663 ± 0.014
x2 = 0.2083	0.681 ± 0.014
x2 = 0.3048	0.679 ± 0.014
x2 = 0.3787	0.715 ± 0.015
x2 = 0.4323	0.742 ± 0.016
x2 = 0.5015	0.796 ± 0.017
x2 = 0.6005	0.879 ± 0.018
x2 = 0.6944	1.048 ± 0.022
x2 = 0.7978	1.265 ± 0.026
x2 = 0.9485	1.751 ± 0.036

CC(C)[C@@H]1CC[C@@H](C)C[C@H]1O + CC(O)CCO
Settings	viscosity [mPa·s]
298.15 K, 101.33 kPa, x1 = 0.5	140.3

CCCCCCCCCCCC[P+](CC)(CC)CC.N#Cc1ccc[n-]1 + OCCN(CCO)CCO
viscosity [mPa·s], 100 kPa
Settings	x1 = 0.035	x1 = 0.091	x1 = 0.207	x1 = 0.28	x1 = 0.473	x1 = 0.687	x1 = 0.809
293.15 K	991 ± 150	–	876 ± 130	863 ± 130	853 ± 130	836 ± 120	718 ± 110
298.15 K	–	675 ± 100	–	–	–	–	–

CCC#N + CCOC(C)=O
303.15 K, 101.33 kPa
Settings	viscosity [mPa·s]
x1 = 0.1019	0.4034 ± 0.0035
x1 = 0.1916	0.4041 ± 0.0035
x1 = 0.2921	0.4038 ± 0.0035
x1 = 0.3979	0.4025 ± 0.0035
x1 = 0.4953	0.4012 ± 0.0035
x1 = 0.5954	0.3976 ± 0.0035
x1 = 0.6959	0.3954 ± 0.0035
x1 = 0.7981	0.3935 ± 0.0035
x1 = 0.9006	0.3915 ± 0.0035

CCOC(=O)OCC + COC(=O)OC
298.15 K, 101 kPa
Settings	viscosity [mPa·s]
x1 = 0.0355	0.585 ± 0.005
x1 = 0.0848	0.594 ± 0.005
x1 = 0.1396	0.603 ± 0.005
x1 = 0.2098	0.615 ± 0.005
x1 = 0.2886	0.628 ± 0.005
x1 = 0.3619	0.641 ± 0.005
x1 = 0.4542	0.657 ± 0.006
x1 = 0.5424	0.672 ± 0.006
x1 = 0.6375	0.689 ± 0.006
x1 = 0.7315	0.706 ± 0.006
x1 = 0.838	0.726 ± 0.006
x1 = 0.8896	0.736 ± 0.006
x1 = 0.9462	0.747 ± 0.006

Cc1ccccc1C + CC(C)CO
308.15 K, 101 kPa
Settings	viscosity [mPa·s]
x2 = 0.0649	0.669 ± 0.014
x2 = 0.1278	0.681 ± 0.014
x2 = 0.2187	0.684 ± 0.014
x2 = 0.3335	0.77 ± 0.016
x2 = 0.4418	0.851 ± 0.018
x2 = 0.5688	0.986 ± 0.021
x2 = 0.6291	1.064 ± 0.022
x2 = 0.7214	1.215 ± 0.025
x2 = 0.8196	1.486 ± 0.031
x2 = 0.9023	1.835 ± 0.038
x2 = 0.9616	2.245 ± 0.047

CCCCCCCCCCO + CCCCCCCCCCCCCCCC
100 kPa, x2 = 0.0921
Settings	viscosity [mPa·s]
298.2 K	9.77 ± 0.6
308.2 K	6.71 ± 0.41
318.2 K	4.76 ± 0.29

CC(C)[C@@H]1CC[C@@H](C)C[C@H]1O + CCCCCCCO
Settings	viscosity [mPa·s]
298.15 K, 101.33 kPa, x1 = 0.5	27.53

CCCCCCCCCCCC + c1ccccc1
Settings	viscosity [mPa·s]
295.15 K, 100 kPa, x2 = 0.3903	1.047 ± 0.21
298 K, 101 kPa, x2 = 0.5	0.9053 ± 0.024
298.15 K, 101.33 kPa, x1 = 0.04733	0.6259 ± 0.0056
298.15 K, 101.33 kPa, x1 = 0.1084	0.6476 ± 0.0057
298.15 K, 101.33 kPa, x1 = 0.2036	0.6913 ± 0.0061
298.15 K, 101.33 kPa, x1 = 0.2978	0.7491 ± 0.0065
298.15 K, 101.33 kPa, x1 = 0.4139	0.8308 ± 0.0071
298.15 K, 101.33 kPa, x1 = 0.5192	0.9153 ± 0.0077
298.15 K, 101.33 kPa, x1 = 0.6155	0.9976 ± 0.0083
298.15 K, 101.33 kPa, x1 = 0.7291	1.102 ± 0.0091
298.15 K, 101.33 kPa, x1 = 0.8011	1.168 ± 0.0096
298.15 K, 101.33 kPa, x1 = 0.9231	1.291 ± 0.01
298.38 K, 101.3 kPa, x1 = 0.5002	0.8885 ± 0.011
298.52 K, 101.3 kPa, x1 = 0.2502	0.7103 ± 0.0087
298.76 K, 101.3 kPa, x1 = 0.7496	1.097 ± 0.013
298.77 K, 101.3 kPa, x1 = 0.7496	1.096 ± 0.013
298.79 K, 101.3 kPa, x1 = 0.7496	1.095 ± 0.013
299.49 K, 101.3 kPa, x1 = 0.5002	0.8746 ± 0.011
308.08 K, 101.3 kPa, x1 = 0.5002	0.775 ± 0.0094
308.51 K, 101.3 kPa, x1 = 0.2502	0.6242 ± 0.0076
308.9 K, 101.3 kPa, x1 = 0.7496	0.9482 ± 0.011
318 K, 101 kPa, x2 = 0.5	0.6904 ± 0.018
322.92 K, 101.3 kPa, x1 = 0.5002	0.6451 ± 0.0078
322.94 K, 101.3 kPa, x1 = 0.2502	0.5262 ± 0.0064

CC(C)[C@@H]1CC[C@@H](C)C[C@H]1O + CC(O)CO
Settings	viscosity [mPa·s]
298.15 K, 101.33 kPa, x1 = 0.5	81.72
